Results taken from PMC6627609, “Targeting Quorum Sensing: High-Throughput Screening to Identify Novel LsrK Inhibitors” (International Journal of Molecular Sciences, 2019).
pIC50: −log10 of the molar value.

Target: LsrK (Salmonella typhimurium, UniProt Q8ZKQ6)
Experiment: biochemical
Assay type: biochemical, S. typhimurium
Settings: for Inhibition (%): 50 µM

Sequence of LsrK (Q8ZKQ6 whole entry): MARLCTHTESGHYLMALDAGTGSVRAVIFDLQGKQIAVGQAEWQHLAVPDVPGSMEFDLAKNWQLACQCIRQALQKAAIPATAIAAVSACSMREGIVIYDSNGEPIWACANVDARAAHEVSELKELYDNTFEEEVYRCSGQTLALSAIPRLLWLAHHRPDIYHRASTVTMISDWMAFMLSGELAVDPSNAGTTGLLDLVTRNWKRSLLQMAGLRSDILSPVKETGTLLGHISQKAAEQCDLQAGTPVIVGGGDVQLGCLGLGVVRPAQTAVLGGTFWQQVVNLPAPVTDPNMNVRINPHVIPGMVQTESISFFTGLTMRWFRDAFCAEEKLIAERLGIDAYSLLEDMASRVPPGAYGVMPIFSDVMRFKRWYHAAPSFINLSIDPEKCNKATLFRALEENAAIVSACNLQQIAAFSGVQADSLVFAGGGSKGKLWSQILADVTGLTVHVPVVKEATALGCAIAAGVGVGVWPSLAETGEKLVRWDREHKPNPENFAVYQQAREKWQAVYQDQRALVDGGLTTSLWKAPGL

Row | Compound | Inhibition (%) | inhibition at 50 µM | further results
1 | CC1(C)C2CC(=O)[C@]3(C)C(CC[C@@]4(C)[C@H](c5ccoc5)OC(=O)C5OC543)[C@@]2(C)[C@@H](O)C[C@H]1O (stereo partly shown) | 2 | – | –
2 | CCOc1cccc(C(=O)c2ccc(O)c(O)c2O)c1 | 11 | – | –
3 | COc1ccc(C(=O)N2CCCC2=O)cc1 | – | 0% | –
4 | COC(=O)[C@H](Cc1ccccc1)NC(=O)[C@@H](N)CC(=O)O | – | 0% | –
5 | C=CC1=C(C(=O)O)N2C(=O)[C@@H](NC(=O)/C(=N\O)c3csc(N)n3)[C@H]2SC1 | – | 17% | –
6 | COC(=O)NC(=S)Nc1ccccc1NC(=S)NC(=O)OC | 3 | – | –
7 | CCN(CC)C(=S)SSC(=S)N(CC)CC | – | 154% | –
8 | CCN(CC)C(=O)c1ccc(O)c(OC)c1 | – | 0% | –
9 | CNc1ccccc1C(=O)O | – | 1% | –
10 | CCOC(=O)[C@H](CCc1ccccc1)N[C@@H](C)C(=O)N1[C@H](C(=O)O)C[C@@H]2CCC[C@@H]21 | – | 3% | –
11 | CC[C@H](C=C[C@@H](C)[C@H]1CC[C@H]2[C@@H]3CCC4=CC(=O)CC[C@]4(C)[C@H]3CC[C@]12C)C(C)C | 1 | – | –
12 | CC(=O)Nc1ccc(S(=O)(=O)Nc2ccc([N+](=O)[O-])cc2)cc1 | – | 1% | –
13 | CC1=C(CC(=O)O)c2cc(F)ccc2/C1=C\c1ccc([S+](C)[O-])cc1 (stereo not shown) | – | 21% | –
14 | CN1CC(=O)N2[C@H](c3ccc4c(c3)OCO4)c3[nH]c4ccccc4c3C[C@@H]2C1=O | – | 1% | –
15 | COc1ccc2c(c1)OC[C@@H](Cc1ccc(OC)c(OC)c1)[C@H]2O | – | 2% | –
16 | COc1ccc(/C=C/C(=O)Nc2ccccc2C(=O)O)cc1OC | – | 15% | –
17 | Nc1nc(N)c2nc(-c3ccccc3)c(N)nc2n1 | – | 0% | –
18 | CCOC(N)=O | – | 0% | –
19 | CCCCC(=O)N(Cc1ccc(-c2ccccc2-c2nnn[nH]2)cc1)[C@H](C(=O)O)C(C)C | – | 1% | –
20 | 3-BROMO-4-METHYL-3.4-HEXAMETHYLENE-3.4-DIHYDRODIAZETE-1.2-DIOXIDE | 1 | – | –
21 | CC(C)CC(NC(=O)[C@H](C)N)C(=O)O (mixture of isomers) [ALANYL-dl-LEUCINE] | – | 2% | –
22 | OC[C@H]1O[C@@H](O[C@@H]2[C@@H](CO)OC(O)(CO)[C@H]2O)[C@H](O)[C@@H](O)[C@H]1O (mixture of isomers) [LACTULOSE] | – | 2% | –
23 | C=CC[S+]([O-])C[C@H](N)C(=O)O (mixture of isomers) [L(+/-)-ALLIIN] | 44 | – | –
24 | COc1cc(O)c(C(=O)/C=C/c2ccc(OC)c(O)c2)c(OC)c1 [2'.3-DIHYDROXY-4.4'.6'-TRIMETHOXYCHALCONE] | 2 | – | –
25 | COc1ccc(/C=C/C(=O)c2ccc(O)cc2O)cc1 [2'.4'-DIHYDROXY-4-METHOXYCHALCONE] | 2 | – | –
26 | O=C(/C=C/c1ccccc1)c1ccc(O[C@@H]2O[C@H](CO)[C@@H](O)[C@H](O)[C@H]2O)cc1O [2'.4'-DIHYDROXYCHALCONE 4'-GLUCOSIDE] | 2 | – | –

Row | Compound | Inhibition (%) | inhibition at 50 µM | further results
27 | O=C(/C=C/c1ccccc1)c1ccc(O)cc1O [2'.4'-DIHYDROXYCHALCONE] | 19 | – | –
28 | COc1cc(O)c(C(=O)/C=C/c2ccc(O)c(OC)c2)c(OC)c1 [2'.4-DIHYDROXY-3.4'.6'-TRIMETHOXYCHALCONE] | 1 | – | –
29 | O=C(/C=C/c1ccc(O)cc1)c1ccccc1O [2'.4-DIHYDROXYCHALCONE] | 58 | – | –
30 | COc1ccc(/C=C/C(=O)c2cc(O)ccc2O)cc1 [2'.5'-DIHYDROXY-4-METHOXYCHALCONE] | 102 | – | pIC50 (read-out: IC50 against LsrK): < 4.30
31 | Nc1ccccc1S(N)(=O)=O [2-AMINOBENZENESULFONAMIDE] | – | 1% | –
32 | COC1=CC(=O)C(C(=O)c2ccccc2)=CC1=O [2-BENZOYL-5-METHOXYBENZOQUINONE] | – | 38% | –
33 | COc1ccc(C(=O)O)c(O)c1OC [2-HYDROXY-3.4-DIMETHOXYBENZOIC ACID] | 1 | – | –
34 | Sc1nc2ccccc2s1 [2-MERCAPTOBENZOTHIAZOLE] | – | 1% | –
35 | COC1(C)CCC2OC2(C)CCC2C1CC2(C)C (stereo not shown) [2-METHOXY-5 (6)EPOXY-TETRAHYDROCARYOPHYLLENE] | – | 0% | –
36 | COc1c(O)cccc1O [2-METHOXYRESORCINOL] | – | 0% | –
37 | O=C1C(Cl)=C(Cl)C(=O)c2c(O)ccc(O)c21 [2.3-DICHLORO-5.8-DIHYDROXYNAPTHOQUINONE] | 30 | – | –
38 | CCOc1ccc(C(=O)c2ccc(OC)c(O)c2O)cc1 [2.3-DIHYDROXY-4-METHOXY-4'-ETHOXYBENZOPHENONE] | 16 | – | –
39 | O=C(O)C(S)C(S)C(=O)O (stereo not shown) [2.3-DIMERCAPTOSUCCINIC ACID] | 88 | – | –
40 | CCOc1ccc(C(=O)c2ccc(O)c(O)c2O)cc1 [2.3.4-TRIHYDROXY-4'-ETHOXYBENZOPHENONE] | 79 | – | –
41 | O=[N+]([O-])c1ccc(O)c([N+](=O)[O-])c1 [2.4-DINITROPHENOL] | 4 | – | –
42 | COc1cc(O)c(C)c(O)c1 [2.6-DIHYDROXY-4-METHOXYTOLUENE] | 1 | – | –
43 | COC1=CC(=O)C=C(OC)C1=O [2.6-DIMETHOXYQUINONE] | 50 | – | –
44 | CC(=O)c1cc2ccccc2oc1=O [3-ACETYLCOUMARIN] | – | 0% | –
45 | Nc1nc[nH]n1 [3-AMINO-1.2.4-TRIAZOLE] | 1 | – | –
46 | C=C1C(N)CC2CC1C2(C)C (stereo not drawn) [3-AMINO-beta-PINENE] | – | 1% | –
47 | CC(=O)O[C@H]1C[C@@H](O)C(C)(C)[C@@H]2C[C@@H](OC(C)=O)[C@]3(C)[C@H](CC[C@@]4(C)[C@@H](c5ccoc5)OC(=O)[C@H]5O[C@@]534)[C@@]12C [3-DEACETYLKHIVORIN] | – | 99% | –
48 | CC(=O)O[C@H]1CC[C@]2(C)C(C[C@@H](OC(C)=O)[C@]3(C)C4=CC(=O)O[C@H](c5ccoc5)[C@@]4(C)CCC23)C1(C)C (stereo partly drawn) [3-DEOXO-3beta-ACETOXYDEOXYDIHYDROGEDUNIN] | – | 5% | –
49 | COC(=O)C[C@H]1C(C)(C)[C@@H](O)[C@@H]2CC3=C4C=C(OC)O[C@@H](c5ccoc5)[C@]4(C)CCC3[C@@]1(C)C2=O (stereo partly drawn) [3-DEOXO-3beta-HYDROXYMEXICANOLIDE 16-ENOL ETHER] | – | 2% | –
50 | C=C1[C@H]2CC[C@@]3(C)[C@H](c4ccoc4)OC(=O)C[C@]13O[C@H]1C[C@H](O)C(C)(C)[C@H](CC(=O)OC)[C@]12C [3-DEOXY-3beta-HYDROXY[…] METHYL ESTER] | – | 1% | –
51 | COc1ccc2c(c1)OC[C@@H](Cc1ccc(OC)c(OC)c1)[C@@H]2O [3-DESHYDRO[…] ETHER] | – | 3% | –
52 | COc1ccc(-c2oc3ccccc3c(=O)c2O)cc1OC [3-HYDROXY-3'.4'-DIMETHOXYFLAVONE] | 0 | – | –

Row | Compound | Inhibition (%) | inhibition at 50 µM | further results
53 | COc1cccc(O)c1O [3-METHOXYCATECHOL] | – | 118% | –
54 | Cc1cc(O)c(C)c(O)c1C(=O)O [3-METHYL[…]] | – | 1% | –
55 | C[C@@H]1CC[C@@]23CCC4(C)[C@@](C=CC5[C@@]6(C)CCC(=O)C(C)(C)C6CC[C@]54C)(OC2=O)C3[C@H]1C (stereo partly shown) [3-OXOURSAN (28-13)OLIDE] | – | 1% | –
56 | c1ccc2c(Cc3c[nH]c4ccccc34)c[nH]c2c1 [3.3'-DIINDOLYLMETHANE] | 0 | – | –
57 | O=c1c(O)c(-c2ccccc2)oc2cc(O)ccc12 [3.7-DIHYDROXYFLAVONE] | 0 | – | –
58 | CC1(C)CC2C1CCC1(C)OC2(C)CCC1O (stereo not shown) [3.7-EPOXYCARYOPHYLLAN-6-OL] | 2 | – | –
59 | CC12CCC3C(CC3(C)C)C(C)(CCC1=O)O2 (stereo not shown) [3.7-EPOXYCARYOPHYLLAN-6-ONE] | 1 | – | –
60 | COC(=O)C[C@H]1C(C)(C)[C@@H](O)[C@@H]2CC3=C4CC(O)O[C@@H](c5ccoc5)[C@]4(C)CCC3[C@@]1(C)C2=O (stereo partly drawn) [3.16-DIDEOXYMEXICANOLIDE-3beta-DIOL] | 0 | – | –
61 | CC(=O)O[C@H]1CC[C@]2(C)[C@H]3CC[C@@]4(C)[C@H](c5ccoc5)OC(=O)[C@H]5O[C@]54[C@]3(C)[C@H](OC(C)=O)C[C@H]2C1(C)C [3beta-ACETOXYDEOXODIHYDROGEDUNIN] | 2 | – | –
62 | C[C@@H]1CC[C@@]2(OC1)O[C@H]1C[C@H]3[C@@H]4CC[C@H]5C[C@@H](O)CC[C@]5(C)C4=CC[C@]3(C)[C@H]1[C@@H]2C [3beta-HYDROXYISOALLOSPIROST-9(11)-ENE] | 2 | – | –
63 | O=C(/C=C/c1ccccc1)c1ccc(O)cc1 [4'-HYDROXYCHALCONE] | – | 38% | –
64 | COc1ccc(C(=O)/C=C/c2ccccc2)cc1 [4'-METHOXYCHALCONE] | – | 12% | –
65 | CCCCOc1cc(CC2CNC(=O)N2)ccc1OC (stereo not shown) [4-(3-BUTOXY-4-METHOXYBENZYL)IMIDAZOLIDIN-2-ONE] | 1 | – | –
66 | C=CC(C1=CC(=O)C(OC)=CC1=O)c1ccccc1 (stereo not shown) [4-METHOXYDALBERGIONE] | – | 52% | –
67 | Cc1cc(=O)oc2c(O)c(O)ccc12 [4-METHYLDAPHNETIN] | – | 1% | –
68 | Cc1cc(=O)oc2cc(O)c(O)cc12 [4-METHYLESCULETIN] | – | 2% | –
69 | COc1cc(O)c(C(C)=O)c(O)c1 [4-O-METHYLPHLORACETOPHENONE] | 2 | – | –
70 | C=CC(C1=CC(=O)C(OC)=CC1=O)c1ccc(OC)cc1 (stereo not shown) [4.4'-DIMETHOXYDALBERGIONE] | 98 | – | –
71 | O=c1c(-c2ccccc2)coc2cc(O)cc(O)c12 [5.7-DIHYDROXYISOFLAVONE] | 106 | – | –
72 | CC(C)CCC[C@@H](C)[C@H]1CC[C@H]2[C@@H]3CC(=O)[C@H]4C[C@@H](O)CC[C@]4(C)[C@H]3CC[C@]12C [5alpha-CHOLESTAN-3beta-OL-6-ONE] | – | 1% | –
73 | COc1ccc2[nH]c3c(c2c1)CCN=C3C [6-METHOXYHARMALAN] | 2 | – | –
74 | COc1ccc2oc(-c3ccccc3OC)cc(=O)c2c1 [6.2'-DIMETHOXYFLAVONE] | 1 | – | –
75 | O=c1cc(-c2ccc(O)cc2)oc2ccc(O)cc12 [6.4'-DIHYDROXYFLAVONE] | 0 | – | –
76 | COc1ccc(-c2cc(=O)c3cc(OC)ccc3o2)cc1 [6.4'-DIMETHOXYFLAVONE] | 2 | – | –
77 | O=C(O)c1nc2cc(Cl)c(Cl)cc2nc1O [6.7-DICHLORO-3-HYDROXY-2-QUINOXALINECARBOXYLIC ACID] | 1 | – | –
78 | CC(=O)OCC1=C(C(=O)O)N2C(=O)[C@@H](N)[C@H]2SC1 [7-AMINOCEPHALOSPORANIC ACID] | 64 | – | –
